Earlier results in patent publication US20120270995A1, “AQUEOUS FORMULATIONS INCLUDING DIOXOLANES AS COUPLING AGENTS” (RHODIA POLIAMIDA E ESPECIALIDADES LTDA, priority 2009, published 2012).
Like-named read-outs stand apart in the source and are kept apart here.

Assays:
[1] = in vivo
[2] = in vivo; remark: listed apart in the source
[3] = CMR = carcinogenic/mutagenic/reproductively toxic
[4] = in vivo; remark: listed apart in the source
[5] = not given; remark: listed apart in the source

For CCCCOCCO [Butylglycol], the Vapour point (20° C.) is listed as 0.8 mmHg.

In the case of CCOCCO [Ethylglycol], the Skin irritation [1] is given as “moderate”, the Aquatic toxicity [2] is given as 5000 mg/L and the Vapour point (25° C.) is given as 5.3 mmHg. For the same compound, the CMR [3] was “cat. 2”, the Eye irritation [4] was “weak” and the Acute oral toxicity [5] was 3000 mg/kg.

In the case of Methylglycol, the Skin irritation [1] is given as “weak”, the Aquatic toxicity [2] is given as 18 000 mg/l and the Vapour point (20° C.) is given as 6.2 mmHg. The Eye irritation [4] was “severe” and the Acute oral toxicity [5] was 18 000 mg/kg.

For CCOCCOC(C)=O [Ethylglycol acetate], the Skin irritation [1] is listed as “severe”, the Aquatic toxicity [2] is listed as 244.66 mg/L and the Vapour point (20° C.) is listed as 2.0 mmHg. For the same compound, the CMR [3] was “cat. 2”, the Eye irritation [4] was “severe” and the Acute oral toxicity [5] was 2900 mg/kg.

In the case of CC1(C)OCC(CO)O1 (stereo not drawn) [Solketal, 2,2-Dimethyl-1,3-dioxolane-4-methanol], the Skin irritation [1] is given as “moderate”, the Aquatic toxicity [2] is given as >1000 mg/L and the Vapour point (37.8° C.) is given as 52.0 mmHg. For the same compound, the Eye irritation [4] was “moderate” and the Acute oral toxicity [5] was 7000 mg/kg.

For CCOCCOCCO [Ethyldiglycol], the Skin irritation [1] is given as “severe”, the Aquatic toxicity [2] is given as 13 400 mg/l and the Vapour point (25° C.) is given as 0.1 mmHg. For the same compound, the Eye irritation [4] was “severe” and the Acute oral toxicity [5] was 5500 mg/kg.

In the case of CCCCOCCOC(C)=O [Butylglycol acetate], the Skin irritation [1] is given as “weak”, the Aquatic toxicity [2] is given as 103.17 mg/L and the Vapour point (20° C.) is given as 0.4 mmHg. For the same compound, the Eye irritation [4] was “weak” and the Acute oral toxicity [5] was 2360 mg/kg.
